# Assay results: patent US20080107751A1, “Antimicrobial Wax Composition for Wax Therapy” (priority 2004, published 2008)
# What was measured:
# [1] = system: Salmonella (both enteritidis and typhimurium strains); experiment: Growth and survival of Salmonella in molten wax composition; assay type: cell-based
# Experimental: (§1) In its simplest form, the wax composition according to the present invention comprises a wax component and an antimicrobial component. The preferred wax is conventional, physio-therapy-grade paraffin wax that is solid at room temperature and has a melting point around 120° F. The preferred antimicrobial agent or component is triclosan, which is a phenolic, broad-spectrum antimicrobial that is generally regarded as safe for use on human skin, and even for ingestion by humans in small amounts. It is available from several sources, including Ciba Specialty Chemicals Corporation, 4090 Premier Drive, High Point, N.C. 27265. […] These bacteria were selected for testing as common human pathogens that are commonly found on the hands. Additionally, these pathogens also model the “survivability” of other pathogens that could be found in the melted wax.
# (§2) This is the preferred concentration of the triclosan antimicrobial in the molten wax composition according to the present invention. As disclosed in connection with the below examples, this is about 0.18-0.2% by weight of the total composition.
# Staphylococcus aurea = experiment: Growth and survival of Staphylococcus in molten wax composition; assay type: cell-based, Staphylococcus aureus
# Experimental: as §1, §2
# Streptococcus = experiment: Growth and survival of Streptococcus in molten wax composition; assay type: cell-based; conditions: triclosan 500 μg/ml up to 1000 μg/ml in molten wax
# Source text: as §2
# E. Coli 0157 = experiment: Growth and survival of E. Coli 0157 in molten wax composition; assay type: cell-based
# Experimental: as §1, §2
# human pathogens = experiment: Growth of pathogens in molten wax composition containing triclosan; assay type: cell-based
# Experimental: as §1, §2
# The foregoing examples vary primarily in their fragrance and coloration. They are by way of example only and not intended to be by way of limitation. Variation of other components is regarded as within the invention. […]
# [2] = molten wax, versus absence of triclosan
# [3] = triclosan 500 μg/ml up to 1000 μg/ml in molten wax
structure (smiles),measurement,setting,value
Oc1cc(Cl)ccc1Oc1ccc(Cl)cc1Cl [triclosan],time of survivability in wax composition,[1]; molten wax,decrease
same,growth of bacteria in wax composition,[1]; [2],inhibit growth
same,growth and survival,"[1]; triclosan 500 μg/ml up to 1000 μg/ml in molten wax, Salmonella apparently eliminated by heat alone",not
same,time of survivability in wax composition,Staphylococcus aurea; molten wax,decrease
same,growth of bacteria in wax composition,Staphylococcus aurea; [2],inhibit growth
same,growth and survival,Staphylococcus aurea; [3],permitted growth and survival
same,growth and survival,Streptococcus,permitted growth and survival
same,time of survivability in wax composition,E. Coli 0157; molten wax,decrease
same,growth of bacteria in wax composition,E. Coli 0157; [2],inhibit growth
same,growth and survival,E. Coli 0157; [3],permitted growth and survival
same,concentration that inhibits the growth of both pathogens,"human pathogens; molten wax composition, about 0.18-0.2% by weight",2000 µg/mL
same,concentration found to inhibit growth of pathogens in wax,"human pathogens; wax maintained at 52.5° C. or 126.5° F., concentrations as low as",≥ 500 µg/mL
